Test results published in ChEMBL document CHEMBL1140670, “Synthesis and evaluation of a phosphonate analogue of the soluble guanylate cyclase activator YC-1” (Bioorg Med Chem Lett, 2007).

Experiments:
[1] = Activation of sGC heme complex expressed in Sf9 cells at 800 uM in presence of carbon monoxide relative to control; conditions: Homo sapiens
[2] = Activation of sGC heme complex expressed in Sf9 cells at 150 uM in presence of carbon monoxide relative to control; conditions: Homo sapiens
[3] = Activation of sGC heme complex expressed in Sf9 cells at 150 uM in presence of nitric oxide relative to control; conditions: Homo sapiens
[4] = Activation of sGC heme complex expressed in Sf9 cells at 800 uM in presence of nitric oxide relative to control; conditions: Homo sapiens
[5] = Activation of sGC heme complex expressed in Sf9 cells at 800 uM relative to control; conditions: Homo sapiens
[6] = Aqueous solubility of the compound; type: physicochemical
[7] = Activation of sGC heme complex expressed in Sf9 cells at 150 uM relative to control; conditions: Homo sapiens

SMILES	Activity [1]	Activity [2]	Activity [3]	Activity [4]	Activity [5]	solubility [6]	Activity [7]
O=P(O)(O)Cc1ccc(-c2nn(Cc3ccccc3)c3ccccc23)o1	1.2	16	38	10	1.4	> 800 µM	5.2
OCc1ccc(-c2nn(Cc3ccccc3)c3ccccc23)o1		87	270				6.4
